One series deals with recombinant human CHIT1 (Homo sapiens (Human), UniProt Q13231). The series is described as follows: Human CHIT1 activity assay. In kind it is biochemical. The note with it: recombinant human CHIT1, citrate buffer pH 5.2, 37° C., 60 minutes; read-out: hCHIT1, IC50. The gist of the method:
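Recombinant human CHIT1 hydrolysed 4-methylumbelliferyl β-D-N,N′,N″-triacetylchitotriose in citrate buffer, pH 5.2, for 60 minutes at 37° C in the dark with shaking. Released 4MU was read by fluorescence at 460 nm under basic pH; IC50 values were calculated from dilution series.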

The target in another series is recombinant human AMCase (Homo sapiens (Human), UniProt Q9BZP6). The series is described as follows: Human AMCase activity assay. In kind it is biochemical. The note with it: citrate buffer pH 5.2, 37° C., 60 minutes, read-out: hAMCase, IC50. In short, it runs like this:
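Recombinant hAMCase hydrolysed 4-methylumbelliferyl β-D-N,N′-diacetylchitobioside in citrate buffer pH 5.2, run 60 min at 37 °C in the dark with shaking. Released 4MU fluorescence was read at 460 nm under basic pH, and IC50 values were fitted from the compound dilutions.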

A further series concerns the target hERG channel (Homo sapiens (Human), UniProt Q12809). Description: Human ERG channel binding assay (fluorescence polarization). To be noted: Table 1; tracer displacement, 4 h at room temperature. In short, it runs like this: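 Serially diluted compounds were incubated with a hERG-containing membrane fraction and a high-affinity red-shifted fluorescent hERG ligand. Displacement of the tracer was read by fluorescence polarization, and IC50 values were derived from the concentration-response curves.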
(Fluorescence polarisation rises when a labelled molecule tumbles more slowly, as on binding a larger partner.)

Where a name gives a salt, the structure may show the parent alone.

By IC50 is commonly meant the point on the concentration scale where inhibition reaches its midpoint.

recombinant human CHIT1, sequence (Q13231 22-466): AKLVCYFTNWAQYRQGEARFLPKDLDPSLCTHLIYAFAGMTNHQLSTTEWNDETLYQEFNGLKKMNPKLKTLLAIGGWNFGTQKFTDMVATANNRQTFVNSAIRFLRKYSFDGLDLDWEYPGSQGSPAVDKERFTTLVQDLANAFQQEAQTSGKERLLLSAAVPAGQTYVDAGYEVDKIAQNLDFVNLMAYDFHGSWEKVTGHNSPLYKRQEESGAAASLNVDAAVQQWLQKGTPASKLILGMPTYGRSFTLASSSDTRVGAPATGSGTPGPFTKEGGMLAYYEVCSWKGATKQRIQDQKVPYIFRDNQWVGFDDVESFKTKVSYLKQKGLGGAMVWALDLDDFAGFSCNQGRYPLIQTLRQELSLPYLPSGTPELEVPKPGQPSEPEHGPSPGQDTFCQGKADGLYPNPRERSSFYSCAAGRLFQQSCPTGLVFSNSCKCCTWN
recombinant human AMCase, sequence (Q9BZP6 22-476): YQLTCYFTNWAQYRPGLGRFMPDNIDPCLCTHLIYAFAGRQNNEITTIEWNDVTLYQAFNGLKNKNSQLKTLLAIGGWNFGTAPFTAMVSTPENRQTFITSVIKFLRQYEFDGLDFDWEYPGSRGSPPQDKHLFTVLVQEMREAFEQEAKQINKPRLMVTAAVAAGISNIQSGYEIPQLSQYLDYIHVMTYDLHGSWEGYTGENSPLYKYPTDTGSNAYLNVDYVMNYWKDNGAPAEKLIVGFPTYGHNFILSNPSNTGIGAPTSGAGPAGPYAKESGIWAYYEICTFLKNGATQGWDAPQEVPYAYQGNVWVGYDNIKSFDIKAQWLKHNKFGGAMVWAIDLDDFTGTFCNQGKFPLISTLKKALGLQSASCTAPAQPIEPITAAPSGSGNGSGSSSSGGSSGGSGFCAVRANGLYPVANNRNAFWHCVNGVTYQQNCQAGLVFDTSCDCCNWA
hERG channel, sequence (Q12809 whole entry): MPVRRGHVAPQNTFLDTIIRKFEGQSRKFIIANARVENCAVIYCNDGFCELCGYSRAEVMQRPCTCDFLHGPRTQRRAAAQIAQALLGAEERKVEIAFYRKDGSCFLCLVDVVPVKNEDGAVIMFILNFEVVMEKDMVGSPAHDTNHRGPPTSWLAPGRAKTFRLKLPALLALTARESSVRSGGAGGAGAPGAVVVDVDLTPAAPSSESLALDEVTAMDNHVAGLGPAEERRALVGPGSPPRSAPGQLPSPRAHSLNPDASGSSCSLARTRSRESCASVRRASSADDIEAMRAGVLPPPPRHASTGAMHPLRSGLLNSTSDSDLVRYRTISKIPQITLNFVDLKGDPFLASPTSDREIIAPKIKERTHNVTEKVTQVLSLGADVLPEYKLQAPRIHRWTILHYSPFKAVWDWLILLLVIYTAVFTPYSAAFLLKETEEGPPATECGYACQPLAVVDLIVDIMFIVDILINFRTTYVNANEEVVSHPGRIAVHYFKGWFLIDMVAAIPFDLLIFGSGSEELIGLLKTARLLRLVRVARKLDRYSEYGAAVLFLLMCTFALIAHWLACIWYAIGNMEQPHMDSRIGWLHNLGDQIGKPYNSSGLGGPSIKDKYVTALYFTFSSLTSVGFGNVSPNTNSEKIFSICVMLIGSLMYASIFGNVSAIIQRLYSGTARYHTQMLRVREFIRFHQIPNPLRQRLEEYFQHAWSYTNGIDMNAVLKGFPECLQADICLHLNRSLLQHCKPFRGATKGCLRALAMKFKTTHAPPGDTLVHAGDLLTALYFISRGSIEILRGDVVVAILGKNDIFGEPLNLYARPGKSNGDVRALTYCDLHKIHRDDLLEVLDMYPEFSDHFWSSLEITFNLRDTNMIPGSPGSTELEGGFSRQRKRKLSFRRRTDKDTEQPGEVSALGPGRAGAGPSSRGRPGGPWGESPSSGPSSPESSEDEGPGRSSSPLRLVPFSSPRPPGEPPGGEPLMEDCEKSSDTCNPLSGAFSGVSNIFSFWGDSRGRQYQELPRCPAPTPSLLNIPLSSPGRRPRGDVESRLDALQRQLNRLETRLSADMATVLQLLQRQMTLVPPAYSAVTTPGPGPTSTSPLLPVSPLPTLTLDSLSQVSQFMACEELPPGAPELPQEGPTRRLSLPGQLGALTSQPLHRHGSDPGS

With `Cc1cc([C@H]2CN(C3CCN(c4nnc(N)[nH]4)CC3)[C@@H](Cc3ccc(Cl)cc3)CO2)nn1C` [Example 11, 5-(4-((2R,5S)-5-(4-chlorobenzyl)-2-(1,5-dimethyl-1H-pyrazol-3-yl)morpholino)-piperidin-1-yl)-4H-1,2,4-triazol-3-amine 2,2,2-trifluoroacetate], the IC50 on recombinant human CHIT1 is < 100 nM; at recombinant human AMCase it was < 100 nM; at hERG channel it was > 100000 nM.
As for `Nc1nnc(N2CCC(N3C[C@H](C(=O)NCC(F)(F)F)OC[C@@H]3Cc3ccc(Cl)cc3)CC2)[nH]1` [Example 26, (2R,5S)-4-(1-(5-amino-4H-1,2,4-triazol-3-yl)piperidin-4-yl)-5-(4-chlorobenzyl)-N-(2,2,2-trifluoroethyl)morpholine-2-carboxamide 2,2,2-trifluoroacetate], the IC50 on recombinant human CHIT1 was 100 to 1000 nM; at recombinant human AMCase, < 100 nM; on hERG channel, > 100000 nM.
Regarding `Nc1nnc(N2CCC(N3C[C@H](CN4CC[C@@H](O)C4)OC[C@@H]3Cc3ccc(Cl)cc3)CC2)[nH]1` [Example 31, (R)-1-(((2S,5S)-4-(1-(5-amino-4H-1,2,4-triazol-3-yl)piperidin-4-yl)-5-(4-chlorobenzyl)morpholin-2-yl)methyl)pyrrolidin-3-ol 2,2,2-trifluoroacetate], the IC50 on recombinant human CHIT1 is 100 to 1000 nM; at recombinant human AMCase it was < 100 nM; at hERG channel, > 100000 nM.
In the same order, the values of `Nc1nnc(N2CCC(N3C[C@H](C(F)F)OC[C@@H]3Cc3ccc(Cl)cc3)CC2)[nH]1` [Example 2, 5-(4-((2R,5S)-5-(4-chlorobenzyl)-2-(difluoromethyl)morpholino)piperidin-1-yl)-4H-1,2,4-triazol-3-amine 2,2,2-trifluoroacetate] are < 100 nM, < 100 nM and > 100000 nM.
Regarding `Nc1nnc(N2CCC(N3C[C@H](N4CCOCC4)CC[C@@H]3Cc3ccc(Cl)cc3)CC2)[nH]1` [Example 58, 5-((2R,5R)-2-(4-chlorobenzyl)-5-morpholino-[1,4′-bipiperidin]-1′-yl)-4H-1,2,4-triazol-3-amine 2,2,2-trifluoroacetate], the figures for the IC50 at recombinant human CHIT1, on recombinant human AMCase and on hERG channel were 100 to 1000 nM, < 100 nM and 10000 to 25000 nM, respectively.
On the same counts, the results for `Cc1cc([C@H]2CN(C3CCN(c4nnc(N)[nH]4)CC3)[C@@H](Cc3ccc(Cl)cc3)CO2)[nH]n1` [Example 34, 5-(4-((2R,5S)-5-(4-chlorobenzyl)-2-(3-methyl-1H-pyrazol-5-yl)morpholino)-piperidin-1-yl)-4H-1,2,4-triazol-3-amine 2,2,2-trifluoroacetate] are < 100 nM, < 100 nM and 25000 to 100000 nM.
In the case of `Nc1nnc(N2CCC(N3C[C@H](C(=O)N4CC(F)C4)OC[C@@H]3Cc3ccc(Cl)cc3)CC2)[nH]1` [Example 62, ((2R,5S)-4-(1-(5-amino-4H-1,2,4-triazol-3-yl)piperidin-4-yl)-5-(4-chlorobenzyl)-morpholin-2-yl)(3-fluoroazetidin-1-yl)methanone 2,2,2-trifluoroacetate], the IC50 at recombinant human CHIT1 is < 100 nM; on recombinant human AMCase, < 100 nM; at hERG channel, > 100000 nM.
In the case of `Nc1nnc(N2CCC(N3C[C@H](Cn4cccn4)OC[C@@H]3Cc3ccc(Cl)cc3)CC2)[nH]1` [Example 13, 5-(4-((2R,5S)-2-((1H-pyrazol-1-yl)methyl)-5-(4-chlorobenzyl)morpholino)-piperidin-1-yl)-4H-1,2,4-triazol-3-amine 2,2,2-trifluoroacetate], the IC50 is < 100 nM on recombinant human CHIT1, < 100 nM at recombinant human AMCase and > 100000 nM at hERG channel.
Take `CC1(C)CC1NC(=O)[C@H]1CN(C2CCN(c3nnc(N)[nH]3)CC2)[C@@H](Cc2ccc(Cl)cc2)CO1` (stereo partly drawn) [Example 23, (2R,5S)-4-(1-(5-amino-4H-1,2,4-triazol-3-yl)piperidin-4-yl)-5-(4-chlorobenzyl)-N-(2,2-dimethylcyclopropyl)morpholine-2-carboxamide 2,2,2-trifluoroacetate]: the IC50 is < 100 nM at recombinant human CHIT1, < 100 nM at recombinant human AMCase and > 100000 nM on hERG channel.
With `CC(C)(O)[C@H]1CN(C2CCN(c3nnc(N)[nH]3)CC2)[C@@H](Cc2ccc(Br)cc2)CO1` [Example 64, 2-((2R,5S)-4-(1-(5-amino-4H-1,2,4-triazol-3-yl)piperidin-4-yl)-5-(4-bromobenzyl)-morpholin-2-yl)propan-2-ol 2,2,2-trifluoroacetate], the IC50 on recombinant human CHIT1 was < 100 nM; at recombinant human AMCase it was < 100 nM; at hERG channel, > 100000 nM.
`CC(C)(C)NC(=O)[C@H]1CN(C2CCN(c3nnc(N)[nH]3)CC2)[C@@H](Cc2ccc(Cl)cc2)CO1` [Example 66, (2R,5S)-4-(1-(5-amino-4H-1,2,4-triazol-3-yl)piperidin-4-yl)-N-(tert-butyl)-5-(4-chlorobenzyl)morpholine-2-carboxamide 2,2,2-trifluoroacetate]: the results for the IC50 on recombinant human CHIT1, on recombinant human AMCase and on hERG channel were 100 to 1000 nM, < 100 nM and > 100000 nM, respectively.
In the same order, the values of `C[S+]([O-])C[C@H]1CN(C2CCN(c3nnc(N)[nH]3)CC2)[C@@H](Cc2ccc(Cl)cc2)CO1` (stereo partly drawn) [Example 32, 5-(4-((2R,5S)-5-(4-chlorobenzyl)-2-((methylsulfinyl)methyl)morpholino)piperidin-1-yl)-4H-1,2,4-triazol-3-amine dihydrochloride] are < 100 nM, < 100 nM and > 100000 nM.
Turning to `Nc1nnc(N2CCC(N3CC(F)(F)CC[C@@H]3Cc3ccc(Cl)cc3)CC2)[nH]1` [Example 57, (R)-5-(2-(4-chlorobenzyl)-5,5-difluoro-[1,4′-bipiperidin]-1′-yl)-4H-1,2,4-triazol-3-amine 2,2,2-trifluoroacetate], the IC50 on recombinant human CHIT1 was < 100 nM; on recombinant human AMCase, < 100 nM; at hERG channel, > 100000 nM.
For the molecule `Cn1nccc1[C@H]1CN(C2CCN(c3nnc(N)[nH]3)CC2)[C@@H](Cc2ccc(Cl)cc2)CO1` [Example 10, 5-(4-((2R,5S)-5-(4-chlorobenzyl)-2-(1-methyl-1H-pyrazol-5-yl)morpholino)piperidin-1-yl)-4H-1,2,4-triazol-3-amine 2,2,2-trifluoroacetate], the IC50 was < 100 nM on recombinant human CHIT1, < 100 nM on recombinant human AMCase and > 100000 nM on hERG channel.
`CC(C)CNC(=O)[C@H]1CN(C2CCN(c3nnc(N)[nH]3)CC2)[C@@H](Cc2ccc(Cl)cc2)CO1` [Example 69, (2R,5S)-4-(1-(5-amino-4H-1,2,4-triazol-3-yl)piperidin-4-yl)-5-(4-chlorobenzyl)-N-isobutylmorpholine-2-carboxamide 2,2,2-trifluoroacetate]: the results for the IC50 on recombinant human CHIT1, on recombinant human AMCase and on hERG channel were < 100 nM, < 100 nM and 25000 to 100000 nM, respectively.
With `Cn1nnc(C[C@H]2CN(C3CCN(c4nnc(N)[nH]4)CC3)[C@@H](Cc3ccc(Cl)cc3)CO2)n1` [Example 5, 5-(4-((2S,5S)-5-(4-chlorobenzyl)-2-((2-methyl-2H-tetrazol-5-yl)methyl)-morpholino)piperidin-1-yl)-4H-1,2,4-triazol-3-amine 2,2,2-trifluoroacetate], the figures for the IC50 at recombinant human CHIT1, on recombinant human AMCase and at hERG channel were < 100 nM, < 100 nM and 25000 to 100000 nM, respectively.

For the origin of these results see US11638707B2, “Substituted amino triazoles useful as chitinase inhibitors” (Molecure S.A., priority 2019, dated 2023).
